Laboratory results taken from the supplement of paper PMC5908809.

What was measured:
[1] = tested on: normal NK cells expanded with K562-aAPC; experiment: percent inhibition of viability; higher = more inhibition; details: 72 h, IL-2 2.5 ng/mL
Procedure: (§1)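 Drug sensitivity and resistance testing on K562-aAPC-expanded normal NK cells: 5 concentrations (10-fold steps over a 10,000-fold range), 72 h at 37 °C, viability by CellTiter-Glo normalised to DMSO and benzethonium chloride controls; DSS from the fitted curve.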

[2] = tested on: normal NK cells expanded with K562-aAPC; experiment: drug sensitivity score (DSS) (DSS units); higher = more sensitive; extreme values may be limits of the assay; details: 72 h; IL-2 2.5 ng/mL
Procedure: as §1

[3] = tested on: normal primary NK cells, pool 1 (3 donors), resting (IL-2 0 ng/mL); experiment: percent inhibition of viability; higher = more inhibition; details: 72 h
[4] = tested on: normal primary NK cells, pool 2 (3 donors) (IL-2 2.5 ng/mL); experiment: as above; details: 72 h
[5] = tested on: SNK-6 (IL-2 2.5 ng/mL); experiment: as above; details: 72 h
[6] = tested on: DERL-7 (IL-2 2.5 ng/mL); experiment: as above; details: 72 h
[7] = tested on: IMC-1 (IL-2 20 ng/mL); experiment: as above; details: 72 h
[8] = tested on: NK-92 (IL-2 2.5 ng/mL); experiment: as above; details: 72 h
[9] = tested on: KHYG-1 (IL-2 2.5 ng/mL); experiment: as above; details: 72 h
[10] = tested on: normal primary NK cells, pool 3 (3 donors) (IL-2 2.5 ng/mL); experiment: as above; details: 72 h
[11] = tested on: NK-YS (IL-2 2.5 ng/mL); experiment: as above; details: 72 h
[12] = tested on: NKL (IL-2 2.5 ng/mL); experiment: as above; details: 72 h
[13] = tested on: KAI3 (IL-2 2.5 ng/mL); experiment: as above; details: 72 h
[14] = tested on: normal primary NK cells, pool 1 (3 donors) (IL-2 2.5 ng/mL); experiment: as above; details: 72 h
[15] = tested on: YT (IL-2 2.5 ng/mL); experiment: as above; details: 72 h
[16] = tested on: normal primary NK cells, pool 1 (3 donors), resting (IL-2 0 ng/mL); experiment: drug sensitivity score (DSS) (DSS units); higher = more sensitive; extreme values may be limits of the assay; details: 72 h
[17] = tested on: normal primary NK cells, pool 2 (3 donors) (IL-2 2.5 ng/mL); experiment: as above; details: 72 h
[18] = tested on: SNK-6 (IL-2 2.5 ng/mL); experiment: as above; details: 72 h
[19] = tested on: DERL-7 (IL-2 2.5 ng/mL); experiment: as above; details: 72 h
[20] = tested on: IMC-1 (IL-2 20 ng/mL); experiment: as above; details: 72 h
[21] = tested on: NK-92 (IL-2 2.5 ng/mL); experiment: as above; details: 72 h
[22] = tested on: KHYG-1 (IL-2 2.5 ng/mL); experiment: as above; details: 72 h
[23] = tested on: normal primary NK cells, pool 3 (3 donors) (IL-2 2.5 ng/mL); experiment: as above; details: 72 h
[24] = tested on: NK-YS (IL-2 2.5 ng/mL); experiment: as above; details: 72 h
[25] = tested on: NKL (IL-2 2.5 ng/mL); experiment: as above; details: 72 h
[26] = tested on: KAI3 (IL-2 2.5 ng/mL); experiment: as above; details: 72 h
[27] = tested on: normal primary NK cells, pool 1 (3 donors) (IL-2 2.5 ng/mL); experiment: as above; details: 72 h
[28] = tested on: YT (IL-2 2.5 ng/mL); experiment: as above; details: 72 h

Cc1ccc2nc(CN(CCN(Cc3nc4ccc(C)cc4[nH]3)Cc3nc4ccc(C)cc4[nH]3)Cc3nc4ccc(C)cc4[nH]3)[nH]c2c1 (max concentration tested 50000 nM)
percent inhibition of viability [%]
Details | 5 nM | 50 nM | 500 nM | 5000 nM | 50000 nM
[1] | -4.88 | -8.25 | -3.73 | 17.5 | 100
[3] | -25.9 | 1.32 | 12.4 | 24.8 | 99.8
[4] | -1.51 | 3.91 | 12.8 | 12.1 | 37.9
[5] | -21 | -28.4 | -6.29 | -12.1 | 101
[6] | 2.65 | -5.22 | 4.05 | 22 | 101
[7] | -6.83 | -3.4 | -4.29 | 10.4 | 51.3
[8] | -27.1 | -13.1 | 15.2 | 54.5 | 110
[9] | -9.01 | -6.49 | -6.15 | 36.3 | 108
[10] | -5.58 | -1.41 | 10.2 | 5.2 | 32.2
[11] | -2.1 | -1.56 | 2.07 | 18.1 | 107
[12] | 2.31 | -9.86 | 19.8 | 69.1 | 107
[13] | -0.45 | -7.54 | 8.33 | 62.9 | 110
[14] | -9.49 | 4.67 | 4.72 | 25.6 | 101
[15] | -8.1 | -15.1 | -6.51 | 29.4 | 108

Details | drug sensitivity score
[2] | 8.41
[16] | 9.11
[17] | 3.42
[18] | 4.89
[19] | 9.01
[20] | 4.41
[21] | 12.5
[22] | 10.5
[23] | 2.31
[24] | 8.57
[25] | 15.5
[26] | 13.3
[27] | 9.43
[28] | 9.85

O=c1cc(N2CCOCC2)oc2c(-c3ccccc3)cccc12 (max concentration tested 100000 nM)
percent inhibition of viability [%]
Details | 10 nM | 100 nM | 1000 nM | 10000 nM | 100000 nM
[1] | -2.73 | -3.41 | 4.76 | 39.4 | 94.5
[3] | -0.68 | 6.88 | 14.6 | 52.6 | 92.9
[4] | -8.94 | -2.33 | 8.53 | 41.1 | 95.9
[5] | 3.19 | 3.24 | 18.5 | 59.4 | 92.6
[6] | 0.77 | -1.71 | 9.97 | 64.1 | 97.4
[7] | -0.85 | -3.31 | -2.01 | -5.98 | 86.2
[8] | -5.7 | -3.95 | -4.94 | 24 | 64.1
[9] | -1.25 | -1.33 | 4.59 | 30.1 | 89.5
[10] | -5.94 | -9.6 | -2.64 | 20.7 | 96.5
[11] | -4.69 | -3.69 | 1.75 | 45.5 | 83.3
[12] | -14.3 | -15.8 | 3.05 | 55.1 | 69.6
[13] | -1.02 | -1.63 | 6.02 | 25.9 | 59.6
[14] | -1.05 | 3.02 | 7.28 | 35.5 | 97.6
[15] | 1.36 | 2.44 | 6.09 | 37.3 | 68.7

Details | drug sensitivity score
[2] | 9.96
[16] | 12.2
[17] | 10.1
[18] | 13.6
[19] | 13.6
[20] | 4.34
[21] | 6.84
[22] | 8.95
[23] | 8.63
[24] | 10.1
[25] | 10.7
[26] | 6.11
[27] | 9.7
[28] | 8.24

COc1ccc(C[C@H](NC(=O)[C@H](C)NC(=O)CN2CCOCC2)C(=O)N[C@@H](Cc2ccccc2)C(=O)C2(C)CO2)cc1 (stereo in doubt) [ONX-0914] (max concentration tested 10000 nM)
percent inhibition of viability [%]
Details | 1 nM | 10 nM | 100 nM | 1000 nM | 10000 nM
[1] | 6.48 | 5.84 | 57.1 | 101 | 101
[3] | -25.3 | 21.3 | 91 | 96.4 | 97.3
[4] | -9.54 | 18.2 | 87.2 | 99.6 | 99.8
[5] | -1.52 | 17.8 | 58.1 | 101 | 101
[6] | 6.02 | 28.7 | 92.2 | 101 | 101
[7] | 2.14 | -0.04 | 24.1 | 100 | 101
[8] | -8.67 | 15.8 | 93.1 | 106 | 102
[9] | -0.77 | 1.13 | 29.1 | 104 | 101
[10] | -6.21 | 2.14 | 73.6 | 99.9 | 100
[11] | 13.1 | 15.9 | 75 | 105 | 102
[12] | 10.8 | 1.76 | 103 | 106 | 102
[13] | 12.7 | 28.5 | 93.7 | 106 | 102
[14] | -4.25 | 8.47 | 92.5 | 100 | 100
[15] | -1.7 | 3.7 | 69.5 | 104 | 101

Details | drug sensitivity score
[2] | 24.8
[16] | 31.9
[17] | 30.7
[18] | 25.6
[19] | 32.7
[20] | 21.7
[21] | 31.6
[22] | 22.3
[23] | 26.7
[24] | 28.6
[25] | 30.9
[26] | 32.9
[27] | 30.5
[28] | 26.3

COc1cc2c(cc1O)CC[C@@H]1[C@@H]2CC[C@]2(C)[C@@H](O)CC[C@@H]12 [2-methoxyestradiol] (max concentration tested 10000 nM)
percent inhibition of viability [%]
Details | 1 nM | 10 nM | 100 nM | 1000 nM | 10000 nM
[1] | -7.6 | -11.6 | -10.8 | 9.36 | 53
[3] | -17.5 | -7.16 | 17.8 | 3.53 | 29.8
[4] | -5.21 | -10.5 | -5.24 | 0.1 | 16.3
[5] | 15.9 | 5.08 | 4.83 | 72.8 | 66.2
[6] | -1.82 | 1.54 | 2.89 | 73.2 | 98.9
[7] | -3.9 | 0.72 | -4.99 | 63.4 | 98.5
[8] | -11.8 | -5.92 | 24.8 | 96.2 | 92.4
[9] | -6.84 | -2.25 | -0.37 | 97.8 | 97.9
[10] | -10.4 | -14 | -8.74 | -10.1 | 2.72
[11] | -6.42 | -2.65 | 5.43 | 77.6 | 66
[12] | -3.96 | -6.41 | 12.5 | 85.8 | 90.6
[13] | -6.2 | -3.7 | 1.79 | 50 | 57.4
[14] | -5.08 | 0.22 | -0.63 | 10 | 19.8
[15] | -5.93 | 2.82 | 1.11 | 86.5 | 92.7

Details | drug sensitivity score
[2] | 4.38
[16] | 1.87
[17] | 0.33
[18] | 14
[19] | 14.2
[20] | 12.8
[21] | 21.1
[22] | 17.6
[23] | 0
[24] | 15
[25] | 17.5
[26] | 9.37
[27] | 1.6
[28] | 15.9

Nc1ncnc2c1nc(N)n2[C@@H]1O[C@H](CO)[C@@H](O)[C@H]1O [8-amino-adenosine] (max concentration tested 50000 nM)
percent inhibition of viability [%]
Details | 5 nM | 50 nM | 500 nM | 5000 nM | 50000 nM
[1] | -1.82 | 3.86 | 28.5 | 101 | 101
[3] | -6.09 | -20.9 | -6.28 | 5.09 | 75.2
[4] | -14.7 | -1.95 | 0.14 | 36.1 | 88.7
[5] | 24.4 | 39.9 | 75.8 | 99 | 101
[6] | -0.37 | -2.93 | 51.5 | 101 | 101
[7] | -2.9 | -0.37 | 12.2 | 101 | 101
[8] | -19.1 | -2.94 | 59.2 | 106 | 109
[9] | -1.34 | -2.24 | 21.2 | 105 | 109
[10] | -13.3 | -8.61 | 10.2 | 31 | 84.2
[11] | -5.77 | -1.64 | 26 | 102 | 108
[12] | -18.8 | 6.72 | 63 | 107 | 109
[13] | -12.9 | -1.89 | 75.4 | 104 | 106
[14] | 2.12 | -9.21 | 1.92 | 26.5 | 81.2
[15] | -0.2 | 1.01 | 20.2 | 102 | 110

Details | drug sensitivity score
[2] | 22.2
[16] | 4.92
[17] | 9.73
[18] | 32.5
[19] | 24.3
[20] | 20.1
[21] | 25
[22] | 21.4
[23] | 8.22
[24] | 22
[25] | 25.6
[26] | 26.6
[27] | 8.3
[28] | 21.3
